Experiments:
HCT116 cells = experiment: Western blot of p53, p21 and phospho-histone H3 in HCT116 cells; type: cell-based, human; settings: 10 μM
Description: FIG. 5: Detection of p53, p21 and of the phosphorylation of histone H3 in the HCT116 cells treated with CDR. The HCT116 cells were treated with the various compounds (10 μM) and for the periods of time indicated (24 hrs or 6 hrs). The proteins were extracted with a lysis buffer and were separated on 10% SDS-Page gel. After being transferred onto nitrocellulose, the p53, p21 proteins and histone H3 were detected by Western blot using anti-p53 (pAb1801), anti-p21 (1/200, Oncogene) antibody and anti-phospho serine 10 of histone H3 (1/2000, Santacruz).
(§1) For the purpose of determining the molecular mechanisms used by the ruthenium derivatives and comparing them with those induced by cisplatinum, the expression of p53, p73 p21 and bax in the A172 and HCT116 lines was analysed.

[1] = tested on: 2008/CMV and 2008/ATP7B cells; experiment: MTT test on 2008/CMV and 2008/ATP7B cells; type: cell-based; settings: 48 hrs
Description: FIG. 6: The 2008/CMV and 2008/ATP7B cells (contributed by Dr. Howell) were cultivated in plates with 96 wells in DMEM medium with 10% calf serum. At 30% confluence, the cells were treated for 48 hrs with cisplatinum or the various compounds derived from ruthenium in the concentrations indicated (1, 5, 15, 50 μM). The quantity of cells present in the wells was evaluated by an MTT (MTT, Sigma) test. The results obtained were related to the values of the control condition (100% viability). The graphs show an average of 8 points with the typical spacings over one experiment representative of 3 carried out. The thick black line indicates the IC50 for each graph.
One of these mechanisms is the overexpression of the copper export pump (ATP7B) which expels cisplatinum from the cell. It has been shown that this molecule is overexpressed in human tumours and that cell lines which overexpress this molecule are more resistant to cisplatinum and carboplatinum than control lines.
Two cell lines derived from 2008 cells (Katano, Safaei et al. 2003) were studied. One overexpresses the ATP7B pump, and the other only contains the control vector. The cytostatic activity of the cisplatinum and the CDR was tested in these two lines using the MTT test.

A172 cells = experiment: Western blot of p53, p73, p21 and Bax in A172 cells; type: cell-based, human
Description: FIG. 3: Detection of p53 and p73 in A172 cells treated with CDR. The A172 cells were treated with the concentrations indicated (2, 5 or 10 μM) with the various compounds and for the periods of time indicated (24 hrs or 6 hrs). The proteins were extracted with a lysis buffer and were separated on 10% SDS-Page gel. After being transferred onto nitrocellulose, the p53 and p73 proteins were detected by Western blot using anti-p53 (pAb1801) and anti-p73 (1/200, Ab2, Oncogene) antibody.
FIG. 4: Detection of p21 and Bax in A172 cells treated with CDR. The A172 cells were treated with the various compounds (10 μM) for 24 hrs. The proteins were extracted with a lysis buffer and were separated on 10% SDS-Page gel. After being transferred onto nitrocellulose, the p21 and Bax proteins were detected by Western blot using anti-p21 (1/200, Oncogene) and anti-Bax (1/2000, Santacruz) antibody.
as §1

RDM4 line = experiment: Proliferation test (UptiBlue) on RDM4 line; type: cell-based, mouse; settings: 72 hours
Description: The products are tested on different cell lines. The cells used are RDM4 from a murine T lymphoma and a MOLT-4 line originating from an acute lymphoblastic leukemia. These cancer lines both express the p53 protein, unlike the HL-60 cells from a human promyelocytary leukemia where, following deletion of its gene, p53 is absent.
All of these cells are cultivated in RPMI 1640-Glutamax, supplemented by 10% calf foetal serum heat inactivated at 56° C. for 30 minutes, 1 mM sodium pyruvate, 1 mM non-essential amino acids and 50 μg/mL gentamycine (Life Technologies, Cergy Pontoise, France). The cultures are kept in an incubator at 37° C. with a moisture saturated atmosphere, with 5% CO2.
This test uses the UptiBlue reagent (Interchim, Montluçon, France), metabolised by the living cells. The cells are incubated on plates with 96 wells with 10^4 cells/well (200 μL) with the product and cultivated for 72 hours. Then, 20 μL UptiBlue are added to each well. After 3 hours incubation, the fluorescence of the samples contained in the plates is measured at 590 nm (excitation at 560 nm), using a Fluorolite 1000 microplate reader (Dynex technologies, Issy-Les-Moulineaux, France).
The potential anti-cancers are first of all selected on the RDM4 line. The effect of the different organo-ruthenium compounds upon the cell viability is firstly determined by a proliferation test as a function of the product concentration. The activity of the compounds derived from Ru is compared to that of cisplatinum. The exposure of the RDM4 cells to these derivatives is translated by a dose-dependent reduction in their proliferation. Therefore, the effect is dependent upon the organic complex which surrounds the Ru nucleus. The inhibition concentration of the growth of 50% of the cells (IC50) is determined for each of the products. […] The ruthenium derivatives showing an excessive IC50 (>50 μM) were eliminated from the biological study.

RDM4 = experiment: DNA fragmentation by marking with propidium iodure on RDM4; type: cell-based, mouse
Source text: A second specific marking of apoptosis is the fragmentation of DNA between the nucleosomes. The fragmented DNA is located in the apoptotic bodies in the terminal phase of apoptosis. This DNA is hypodiploid and so less in quantity than that present in normal cells. It can be quantified by flux cytometry after permeabilisation of the cell membranes and marking with PI. The quantity of DNA in a normal cell is 2n in the G0/G1 phase and 4n in the G2 phase. Therefore, the sub-G0 DNA in a quantity of less than 2n has a weaker fluorescence intensity.
This phenomenon tends to diminish after 48 hrs of treatment. On the other hand, when the cells are treated with 45 μM, the formation of hypodiploid particles, visualised by the sub-G0 DNA content, is less than 10% at 24 hrs and exceeds 50% at 48 hrs such as to reach 60% at 72 hrs. […] The quantity of hypodiploid particles in the control cells remains less than 4% over this same period.

N.N.[Cl][Pt][Cl] [Cisplatinum, reference compound]
increase in expression of p21 and inhibition of phosphorylation of histone H3 (HCT116 cells): identical for CDR 6 and cisplatinum
sensitivity of the line expressing ATP7B relative to the control line (MTT) [1]: significantly less sensitive
expression of p21 and Bax (A172 cells; 10 μM, 24 hours treatment): induces the expression of p21 and Bax
p53 proteic levels (A172 cells; 6 hrs treatment): induce p53
p53 proteic levels (A172 cells; 24 hrs treatment): induces the p53 proteic levels

[Ru(C6H4-2-C5H4N)(phen)(NCMe)2]PF6 [Compound 11]
IC50 (RDM4 line): 11 µM
cell cycle distribution (propidium iodure) (RDM4; 15 μM, first two days): accumulation in the G0/G1 phase
hypodiploid particles (sub-G0 DNA content) (RDM4; 45 μM, 72 hrs): 60%
